The structures appear in SMILES notation.

In one assay the target is JAK1 (Homo sapiens (Human), UniProt P23458). In words: Jak Biochemical HTRF Assay, JAK1. The following applies: HTRF biochemical assay, GST-tagged catalytic domain; top concentration tested […]; read-out: JAK1 IC50. From the text: (§1) Jak Biochemical HTRF Assay Protocol
(§2) Subsequent reagent additions employed an Agilent Bravo.
(In general: In TR-FRET formats the signal depends on donor and acceptor labels being close together.)

The target in a further assay is JAK2 (Homo sapiens (Human), UniProt O60674). Nature of the assay: Jak Biochemical HTRF Assay, JAK2. As to conditions: HTRF biochemical assay, GST-tagged catalytic domain; top concentration tested […].
Chain of JAK2 (O60674 849-1124): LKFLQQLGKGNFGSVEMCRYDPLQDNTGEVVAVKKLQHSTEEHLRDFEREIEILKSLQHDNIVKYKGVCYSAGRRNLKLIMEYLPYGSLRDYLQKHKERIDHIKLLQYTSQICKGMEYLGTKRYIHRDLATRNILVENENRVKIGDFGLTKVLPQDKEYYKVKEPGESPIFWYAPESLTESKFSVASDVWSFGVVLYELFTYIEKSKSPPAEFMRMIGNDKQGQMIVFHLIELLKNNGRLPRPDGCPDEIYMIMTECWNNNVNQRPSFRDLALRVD
Description: as §1, §2

Chain of JAK1 (P23458 875-1153): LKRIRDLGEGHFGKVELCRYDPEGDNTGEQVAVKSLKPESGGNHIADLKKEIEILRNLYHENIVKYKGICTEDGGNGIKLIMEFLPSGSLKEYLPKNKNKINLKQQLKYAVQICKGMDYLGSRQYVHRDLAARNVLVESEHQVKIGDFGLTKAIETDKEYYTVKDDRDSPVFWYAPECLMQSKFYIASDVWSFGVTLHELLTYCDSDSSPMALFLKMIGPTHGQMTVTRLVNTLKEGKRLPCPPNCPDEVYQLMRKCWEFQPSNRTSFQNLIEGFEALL

A word on the IC50: it is the concentration at which inhibition is half-maximal. Turning to `CCc1cccc(C)c1NC(=O)N1CC(CC#N)(n2cc(C(N)=O)c(Nc3ccccc3)n2)C1` [Example 38-23, 1-{3-(cyanomethyl)-1-[(2-ethyl-6-methylphenyl)carbamoyl]azetidin-3-yl}-3-(phenylamino)-1H-pyrazole-4-carboxamide], the half-maximal inhibitory concentration (IC50) was determined as 94 nM at JAK1 and 1190 nM at JAK2.
On the same counts, the results for `CC(=O)Nc1ccc(CN2CCC(CC#N)(n3cc(C(N)=O)c(Nc4ccccc4)n3)CC2)cc1` [Example 21-12, 1-{1-[4-(acetylamino)benzyl]-4-(cyanomethyl)piperidin-4-yl}-3-(phenylamino)-1H-pyrazole-4-carboxamide] are 7 nM and 128 nM.
For the compound `N#CCC1(n2cc(C(N)=O)c(Nc3ccc(F)cc3)n2)CCN(C(=O)OC2CCCOC2)CC1` (stereo not drawn) [Example 30-25, tetrahydro-2H-pyran-3-yl 4-{4-carbamoyl-3-[(4-fluorophenyl)amino]-1H-pyrazol-1-yl}-4-(cyanomethyl)piperidine-1-carboxylate], the IC50 amounted to 4 nM at JAK1 and 120 nM at JAK2.
On the same counts, the results for `COc1ccc(N2CCC(CC#N)(n3cc(C(N)=O)c(Nc4ccc(F)cc4)n3)CC2)cc1OC` [Example 3-1, 1-[4-(Cyanomethyl)-1-(3,4-dimethoxyphenyl)piperidin-4-yl]-3-[(4-fluorophenyl)amino]-1H-pyrazole-4-carboxamide] are 4 nM and 154 nM.
On the same counts, the results for `COc1cccc(COC(=O)N2CC(CC#N)(n3cc(C(N)=O)c(Nc4ccccc4)n3)C2)c1` [Example 30-70, 3-methoxybenzyl 3-[4-carbarnoyl-3-(phenylamino)-1H-pyrazol-1-yl]-3-(cyanomethyl)azetidine-1-carboxylate] are 21 nM and 423 nM.
On the same counts, the results for `CC(OC(=O)N1CCC(CC#N)(n2cc(C(N)=O)c(Nc3ccc(F)cc3)n2)CC1)C(F)(F)F` (stereo not drawn) [Example 30-3, 1,1,1-trifluoropropan-2-yl 4-(4-carbamoyl-3-(4-fluorophenylamino)-1H-pyrazol-1-yl)-4-(cyanomethyl)piperidine-1-carboxylate] are 0.8 nM and 28 nM.
Turning to `N#CCC1(n2cc(C(N)=O)c(Nc3ccc(S(=O)(=O)C(F)F)cc3)n2)CCC(NC2CCOCC2)CC1` (stereo not drawn) [Example 40-66, Cis or trans 1-[1-(cyanomethyl)-4-(tetrahydro-2H-pyran-4-ylamino)cyclohexyl]-3-({4-[(difluoromethyl)sulfonyl]phenyl}amino)-1H-pyrazole-4-carboxamide], the concentration for half-maximal inhibition (IC50) at JAK1 is 344 nM; at JAK2 it was over 1500 nM.
On the same counts, the results for `CC(c1ccccc1)N1CCC(CC#N)(n2cc(C(N)=O)c(Nc3ccc(F)cc3)n2)CC1` (stereo not drawn) [Example 23, 1-(4-(Cyanomethyl)-1-(1-phenylethyl)piperidin-4-yl)-3-((4-fluorophenyl)amino)-1H-pyrazole-4-carboxamide] are 4 nM and 105 nM.
On the same counts, the results for `N#CCC1(n2cc(C(N)=O)c(Nc3ccc(F)cc3)n2)CCN(c2ccccn2)CC1` [Example 25, 1-(4-(Cyanomethyl)-1-(pyridin-2-yl)piperidin-4-yl)-3-(4-fluorophenylamino)-1H-pyrazole-4-carboxamide] are 0.08 nM and 2 nM.
On the same counts, the results for `CC1(C)CC(CN2CCC(CC#N)(n3cc(C(N)=O)c(Nc4ccnc(F)c4)n3)CC2)CCO1` (stereo not drawn) [Example 22-16, 1-{4-(cyanomethyl)-1-[(2,2-dimethyltetrahydro-2H-pyran-4-yl)methyl]piperidin-4-yl}-3-[(2-fluoropyridin-4-yl)amino]-1H-pyrazole-4-carboxamide] are 5 nM and 122 nM.
For `CS(=O)(=O)c1ccc(Nc2nn(C3(CC#N)CCN(C(=O)CC#N)CC3)cc2C(N)=O)cc1` [Example 36-2, 1-[1-(cyanoacetyl)-4-(cyanomethyl)piperidin-4-yl]-3-{[4-(methylsulfonyl)phenyl]amino}-1H-pyrazole-4-carboxamide], the IC50 on JAK1 amounted to 0.6 nM; against JAK2, 10 nM.
On to `CS(=O)(=O)c1ccc(Nc2nn(C3(CC#N)CCC4(CC3)OCCO4)cc2C(N)=O)cc1` [Example 6-7, 1-[8-(cyanomethyl)-1,4-dioxaspiro[4.5]dec-8-yl]-3-{[4-(methylsulfonyl)phenyl]amino}-1H-pyrazole-4-carboxamide], for which the IC50 was 19 nM on JAK1 and 206 nM against JAK2.
As to `N#CCC1(n2cc(C(N)=O)c(Nc3ccnc(F)c3)n2)CCN(C(=O)CCC(F)(F)F)CC1` [Example 34-57, 1-[4-(cyanomethyl)-1-(4,4,4-trifluorobutanoyl)piperidin-4-yl]-3-[(2-fluoropyridin-4-yl)amino]-1H-pyrazole-4-carboxamide], the IC50 at JAK1 was determined as 0.1 nM; at JAK2, 9 nM.
On the same counts, the results for `CCOc1cccc(N2CCC(CC#N)(n3cc(C(N)=O)c(Nc4ccc(F)cc4)n3)CC2)n1` [Example 3-16, 1-[4-(cyanomethyl)-1-(6-ethoxypyridin-2-yl)piperidin-4-yl]-3-[(4-fluorophenyl)amino]-1H-pyrazole-4-carboxamide] are 45 nM and 861 nM.
For `CC(C)(CO)OC(=O)N1CCC(CC#N)(n2cc(C(N)=O)c(Nc3ccc(F)cc3)n2)CC1` [Example 29, 1-Hydroxy-2-methylpropan-2-yl 4-{4-carbamoyl-3-[(4-fluorophenyl)amino]-1H-pyrazol-1-yl}-4-(cyanomethyl)piperidine-1-carboxylate], the IC50 on JAK1 was 2 nM; on JAK2, 96 nM.
In the case of `N#CCC1(n2cc(C(N)=O)c(Nc3ccnc(F)c3)n2)CCC(NCc2ccc(F)cc2)CC1` (stereo not drawn) [Example 41-25, Cis or trans 1-{1-(cyanomethyl)-4-[(4-fluorobenzyl)amino]cyclohexyl}-3-[(2-fluoropyridin-4-yl)amino]-1H-pyrazole-4-carboxamide], the IC50 on JAK1 worked out at 27 nM; against JAK2 it was 1080 nM.
With `N#CCC1(n2cc(C(N)=O)c(Nc3ccnc(F)c3)n2)CCC(Nc2ccc(F)cc2)CC1` (stereo not drawn) [Example 40-47, Cis or trans 1-{1-(cyanomethyl)-4-[(4-fluorophenyl)amino]cyclohexyl}-3-[(2-fluoropyridin-4-yl)amino]-1H-pyrazole-4-carboxamide], the concentration for half-maximal inhibition (IC50) on JAK1 was 215 nM; against JAK2, over 1500 nM.
On the same counts, the results for `N#CCC1(n2cc(C(N)=O)c(Nc3ccnc(F)c3)n2)CCN(Cc2ccccc2F)CC1` [Example 22-9, 1-[4-(cyanomethyl)-1-(2-fluorobenzyl)piperidin-4-yl]-3-[(2-fluoropyridin-4-yl)amino]-1H-pyrazole-4-carboxamide] are 0.06 nM and 2 nM.
On the same counts, the results for `N#CCC1(n2cc(C(N)=O)c(Nc3ccc(F)cc3)n2)CCC(Nc2ccc(F)cc2)CC1` (stereo not drawn) [Example 40-19, Cis or trans 1-{1-(cyanomethyl)-4-[(4-fluorophenyl)amino]cyclohexyl}-3-[(4-fluorophenyl)amino]-1H-pyrazole-4-carboxamide] are 0.3 nM and 10 nM.
On the same counts, the results for `CC(C)NC(=O)N1CC(CC#N)(n2cc(C(N)=O)c(Nc3ccccc3)n2)C1` [Example 38-3, 1-{3-(cyanomethyl)-1-[(1-methylethyl)carbamoyl]azetidin-3-yl}-3-(phenylamino)-1H-pyrazole-4-carboxamide] are 10 nM and 185 nM.
With `CC(C)(C)OC(=O)N1CCC(CC#N)(n2cc(C(N)=O)c(Nc3cc(F)ccn3)n2)CC1` [Example 13-5, tert-butyl 4-(4-carbamoyl-3-(4-fluoropyridin-2-ylamino)-1H-pyrazol-1-yl)-4-(cyanomethyl)piperidine-1-carboxylate], the concentration for half-maximal inhibition (IC50) on JAK1 worked out at 15 nM; on JAK2, 903 nM.
On the same counts, the results for `CC(C)(C)OC(=O)N1CCC(CC#N)(n2cc(C(N)=O)c(Nc3ccncn3)n2)CC1` [Example 13-1, tert-Butyl 4-(4-carbamoyl-3-(pyrimidin-4-ylamino)-1H-pyrazol-1-yl)-4-(cyanomethyl)piperidine-1-carboxylate] are 3 nM and 139 nM.
For `Cc1cc(C)cc(NC(=O)N2CC(CC#N)(n3cc(C(N)=O)c(Nc4ccccc4)n3)C2)c1` [Example 38-20, 1-{3-(cyanomethyl)-1-[(3,5-dimethylphenyl)carbamoyl]azetidin-3-yl}-3-(phenylamino)-1H-pyrazole-4-carboxamide], the results for the IC50 on JAK1 and against JAK2 were 19 nM and 326 nM, respectively.
Turning to `CC(C)Oc1cccc(N2CCC(CC#N)(n3cc(C(N)=O)c(Nc4ccc(F)cc4)n3)CC2)n1` [Example 3-15, 1-{4-(cyanomethyl)-1-[6-(1-methylethoxy)pyridin-2-yl]piperidin-4-yl}-3-[(4-fluorophenyl)amino]-1H-pyrazole-4-carboxamide], the IC50 is 191 nM on JAK1 and over 1500 nM against JAK2.
Turning to `N#CCC1(n2cc(C(N)=O)c(Nc3ccnc(F)c3)n2)CCC(N2CC(F)C2)CC1` (stereo not drawn) [Example 40-82, Cis or trans 1-[1-(cyanomethyl)-4-(3-fluoroazetidin-1-yl)cyclohexyl]-3-[(2-fluoropyridin-4-yl)amino]-1H-pyrazole-4-carboxamide], the half-inhibitory concentration (IC50) on JAK1 stood at 26 nM; on JAK2 it was 444 nM.
On to `N#CCC1(n2cc(C(N)=O)c(Nc3ccccc3)n2)CCN(C(=O)c2ccccc2)CC1` [Example 34-7, 1-[4-(cyanomethyl)-1-(phenylcarbonyl)piperidin-4-yl]-3-(phenylamino)-1H-pyrazole-4-carboxamide], for which the IC50 came to 6 nM on JAK1 and 94 nM at JAK2.
On the same counts, the results for `N#CCC1(n2cc(C(N)=O)c(Nc3ccccc3)n2)CCN(C(=O)c2ccncc2)CC1` [Example 34-10, 1-[4-(cyanomethyl)-1-(pyridin-4-ylcarbonyl)piperidin-4-yl]-3-(phenylamino)-1H-pyrazole-4-carboxamide] are 20 nM and 318 nM.
